Consider 1 compound from patent publication US20150174158A1, “[…] NITRIC OXIDE FOR TREATING RESPIRATORY DISEASES” (Advanced Inhalation Therapies (AIT) Ltd., priority 2012, published 2015).

The subject of one data set is MRSA. The conditions noted are these: 200 ppm gNO; saline; cited from earlier work.
In a further data set the test system is Acinetobacter sp. The conditions noted are these: 200 ppm gNO; saline; cited from earlier work.
The conditions of data set [1]: gNO concentrations below 200 ppm, 6 hours/day for 28 days; cited from earlier work.
A further data set has as its system Serracia sp. The note with it: 200 ppm gNO; saline; cited from earlier work.
For data set [2] the following is noted: continuous delivery of 80 ppm; cited from earlier work.
The conditions of data set [3]: cited from earlier work; for mortality: 6 h/day, groups of 10 rats.
The subject of data set [4] is chronic, non-healing wound. The conditions noted are these: topical 200 ppm gNO, within the first three days; cited from earlier work.
The nature of data set [5]: Phase I safety study: hematology, blood chemistry, coagulation. The data set is classed as in vivo, human. The note with it: baseline 0.15 (SD=0.12); SD=0.19; p=0.104. The method, then:
After obtaining informed consent, treatment was initiated within 5 days of enrollment. Subjects were housed in a hospital ward and received 160 ppm gNO for 30 minutes every four hours (Q4h), five times a day, for five consecutive days by inhalation. Subjects returned for follow-up evaluations 3, 7 and 21 days after the final gNO administration. Subject safety was determined by monitoring vital signs, methemoglobin levels, lung function, blood chemistry, hematology, prothrombin time, inflammatory cytokine/chemokines levels and endothelial activation. These parameters were compared to baseline and at various time-points during and after gNO administration.
Hematological assessment included a complete blood count and differentials (hemoglobin, hematocrit, red blood cell count, white blood cell count, white blood cell differential, and platelet count) were obtained in order to monitor blood chemistry, hematology and inflammation measurements. […] The effect of gNO on coagulation was determined by the prothrombin time (PT) and its derived measures of prothrombin ratio (PR) and international normalized ratio (INR). […] Plasma cytokine levels were assessed using the human inflammation cytokine bead array kit (BD Bioscience, Canada). Plasma levels of angiopoietin Ang-1 and Ang-2 were determined by ELISA (R&D Systems, USA).

Like-named read-outs stand apart in the source and are kept apart here.

As to `[N]=O` [gNO, nitric oxide], the results for the LD100 with MRSA, with Acinetobacter sp. and in the data set with Serracia sp. were 5 h, 6 h and 6 h, respectively. Moreover, the “Latent Period” value in the data set with MRSA was 3 h; in the data set with Acinetobacter sp., 4 h; with Serracia sp., 4 h. The figures for the “−2.5 Log10” value in the data set with MRSA, in the data set with Acinetobacter sp. and in the data set with Serracia sp. were 4.2 hours, 5 hours and 4.9 hours, respectively. Besides, in data set [1], the deaths result is reported as “No deaths occurred”. The NO2 level in data set [2] is on record as 2.6 ppm. Moreover, the “animals that died during the first 1-2 days” value in data set [3] (300 ppm gNO, group of 10 rats) is “Six”. Moreover, the mortality entry in data set [3] (400 ppm gNO) and in data set [3] (500 ppm gNO) was “all of the animals died on the first day” each time. Moreover, the MetHb level in data set [3] (500 ppm gNO) is reported as 67 percents. Also, the biofilm presence entry in data set [4] is recorded as “no longer visibly present”. The “eosinophil cell numbers, end of study” value in data set [5] is recorded as 0.19 giga/L.
